Measurements published in patent US9187426B2, “Organic compounds” (Novartis AG, priority 2008, dated 2015).

| melting point [°C] | Structure (SMILES) |
| --- | --- |
| 165 to 167 | O=C(NCc1ccccc1)c1ccnc(N2CCN(Cc3ccc4nonc4c3)C2=O)c1 [Example 26.5, 2-(3-(Benzo[c][1,2,5]-oxadiazol-5-ylmethyl)-2-oxoimidazolidin-1-yl)-N-benzylisonicotinamide] |
| 115 to 117 | CC(NC(=O)c1ccnc(N2CCN(Cc3ccc(F)cc3)C2=O)c1)c1ccccc1 (stereo not drawn) [Example 26.6, 2-(3-(4-Fluorobenzyl)-2-oxoimidazolidin-1-yl)-N-(1-phenylethyl)-isonicotinamide] |
| 163 to 165 | Cc1nc(CNC(=O)c2ccnc(N3CCN(Cc4ccc(F)cc4)C3=O)c2)no1 [Example 26.7, 2-(3-(4-Fluorobenzyl)-2-oxoimidazolidin-1-yl)-N-((5-methyl-1,2,4-oxadiazol-3-yl)methyl)-isonicotinamide] |
| 161 to 163 | O=C(NCc1ccccn1)c1cc(N2CCN(Cc3ccc(F)cc3)C2=O)nc2ccccc12 [Example 26.8, 2-(3-(4-Fluorobenzyl)-2-oxoimidazolidin-1-yl)-N-(pyridin-2-ylmethyl)quinoline-4-carboxamide] |
| 178 to 180 | O=C(NCc1cc(Br)no1)c1ccnc(N2CCN(Cc3ccc(F)cc3)C2=O)c1 [Example 26.9, N-((3-Bromoisoxazol-5-yl)methyl)-2-(3-(4-fluorobenzyl)-2-oxoimidazolidin-1-yl)isonicotinamide] |
| 199 to 201 | O=C(NCc1cc(-c2ccccc2)on1)c1ccnc(N2CCN(Cc3ccc(F)cc3)C2=O)c1 [Example 26.10, 2-(3-(4-Fluorobenzyl)-2-oxoimidazolidin-1-yl)-N-((5-phenylisoxazol-3-yl)methyl)-isonicotinamide] |
| 185 to 186 | O=C(NCc1cnc(Cl)s1)c1ccnc(N2CCN(Cc3ccc(F)cc3)C2=O)c1 [Example 26.11, N-((2-Chlorothiazol-5-yl)methyl)-2-(3-(4-fluorobenzyl)-2-oxoimidazolidin-1-yl)isonicotinamide] |
| 189 to 191 | O=C(NCc1cncs1)c1ccnc(N2CCN(Cc3ccc(OC(F)(F)F)cc3)C2=O)c1 [Example 26.14, 2-(2-Oxo-3-(4-(trifluoromethoxy)benzyl)imidazolidin-1-yl)-N-(thiazol-5-ylmethyl)-isonicotinamide] |
| 185 to 187 | O=C(NCc1cccnc1)c1ccnc(N2CCN(Cc3ccc(OC(F)(F)F)cc3)C2=O)c1 [Example 26.16, 2-(2-Oxo-3-(4-(trifluoromethoxy)-benzyl)imidazolidin-1-yl)-N-(pyridin-3-ylmethyl)-isonicotinamide] |
| 97 to 99 | O=C(NCc1nccs1)c1ccnc(N2CCN(Cc3ccc(OC(F)(F)F)cc3)C2=O)c1 [Example 26.17, 2-(2-Oxo-3-(4-(trifluoromethoxy)benzyl)imidazolidin-1-yl)-N-(thiazol-2-ylmethyl)-isonicotinamide] |
| 209 to 211 | O=C(NCc1cnc(Cl)s1)c1ccnc(N2CCN(Cc3ccc(C(F)(F)F)cc3)C2=O)c1 [Example 26.20, N-((2-Chlorothiazol-5-yl)methyl)-2-(2-oxo-3-(4-(trifluoromethyl)-benzyl)imidazolidin-1-yl)isonicotinamide] |
| 170 to 172 | O=C(NCc1nccs1)c1ccnc(-n2cnn(Cc3ccc(F)cc3)c2=O)c1 [Example 26.21, 2-(1-(4-Fluorobenzyl)-5-oxo-1H-1,2,4-triazol-4(5H)-yl)-N-(thiazol-2-ylmethyl)-isonicotinamide] |
| 111 to 113 | O=C(NCc1cncs1)c1ccnc(N2CCN(Cc3ccc(F)c(F)c3)C2=O)c1 [Example 26.24, 2-(3-(3,4-Difluorobenzyl)-2-oxoimidazolidin-1-yl)-N-(thiazol-5-ylmethyl)-isonicotinamide] |
| 105 to 107 | O=C(NCc1nccs1)c1ccnc(N2CCN(Cc3ccc(F)c(F)c3)C2=O)c1 [Example 26.25, 2-(3-(3,4-Difluorobenzyl)-2-oxoimidazolidin-1-yl)-N-(thiazol-2-ylmethyl)-isonicotinamide] |
| 181 to 183 | O=C(NCc1cncs1)c1ccnc(-n2cnn(Cc3ccc(F)cc3)c2=O)c1 [Example 26.26, 2-(1-(4-Fluorobenzyl)-5-oxo-1H-1,2,4-triazol-4(5H)-yl)-N-(thiazol-5-ylmethyl)-isonicotinamide] |
| 161 to 163 | O=C(NCc1nccs1)c1ccnc(-n2cnn(Cc3ccc(F)c(F)c3)c2=O)c1 [Example 26.28, 2-(1-(3,4-Difluorobenzyl)-5-oxo-1H-1,2,4-triazol-4(5H)-yl)-N-(thiazol-2-ylmethyl)-isonicotinamide] |
| 161 to 163 | O=C(NCc1cnc(Cl)s1)c1ccnc(N2CCN(Cc3ccc(F)c(F)c3)C2=O)c1 [Example 26.33, N-((2-Chlorothiazol-5-yl)methyl)-2-(3-(3,4-difluorobenzyl)-2-oxoimidazolidin-1-yl)isonicotinamide] |
| 184 to 186 | O=C(NCc1cnc(Cl)s1)c1ccnc(N2CCN(Cc3ccc(OC(F)(F)F)cc3)C2=O)c1 [Example 26.34, N-((2-Chlorothiazol-5-yl)methyl)-2-(2-oxo-3-(4-(trifluoromethoxy)-benzyl)imidazolidin-1-yl)isonicotinamide] |
